Four compounds from ChEMBL document CHEMBL3593230, “Randainins A-D, Based on Unique Diterpenoid Architectures, from Callicarpa randaiensis” (J Nat Prod, 2015) can be followed below.

pIC50: −log10 of the molar value. Active and inactive are the calls of the source. The calls are words filed in the database; no cut-off is given here. Some results are limits rather than exact numbers.

The test system of one experiment is Neutrophil. In words: Anti-inflammatory activity in human neutrophils assessed as inhibition of fMLP/CB-induced elastase release incubated for 5 mins followed by fMLP/CB stimulation using MeO-Suc-Ala-Ala-Pro-Val-p-nitroanilide substrate. The experiment is classed as functional, cell-based.
The subject of the next experiment is MCF7. In words: Cytotoxicity against human MCF7 incubated for 3 days by MTT assay. In kind it is functional, cell-based. Particulars: MCF7, 72 h.
Experiment [1] is described as follows: Anti-inflammatory activity in human neutrophils assessed as inhibition of fMLP/CB-induced superoxide anion generation incubated for 5 mins followed by fMLP/CB stimulation for 10 mins by spectrophotometry. In kind it is functional, cell-based, Neutrophil. The following applies: for IC50: neutrophil.
A further experiment has as its system HepG2. Put plainly: Cytotoxicity against human HepG2 cells incubated for 3 days by MTT assay. In kind it is functional, cell-based. The following applies: HepG2, 72 h. A general note: Tetrazolium assays rely on reduction of a dye to a coloured formazan, in cell work by metabolically active cells.
Experiment [2] can be described thus: Cytotoxicity against human Hep2 cells incubated for 3 days by MTT assay. The experiment is classed as functional, cell-based. The following applies: HEp-2, 72 h.
The next experiment has as its system A549. In words: Cytotoxicity against human A549 cells incubated for 3 days by MTT assay. The experiment is classed as functional, cell-based. Particulars: A549, 72 h.
The nature of experiment [3]: Anti-inflammatory activity in human neutrophils assessed as inhibition of fMLP/CB-induced elastase release at 28.6 uM incubated for 5 mins followed by fMLP/CB stimulation using MeO-Suc-Ala-Ala-Pro-Val-p-nitroanilide substrate. In kind it is functional. Particulars: Neutrophil.

What is called inhibition is the change of the read-out against control, counted positive when it falls. The term pIC50 denotes the negative decadic logarithm of the IC50, by convention in mol/L. Consider `C[C@@H]1C[C@H]2C(=O)C(C)(C)[C@H](O)CC[C@]2(O)[C@@]1(C)CCC1=CC(=O)OC1`, for which the inhibition result with Neutrophil was “inactive”. The pIC50 (with MCF7; with HepG2; in experiment [2]; in the experiment on A549) was less than 5.00 in each case. The IC50 result in experiment [1] is listed as “Not Active”.

On to `C[C@@H]1C[C@H]2C(=O)C(C)(C)[C@H](OC=O)CC[C@]2(O)[C@@]1(C)CCC1=CC(=O)OC1`, for which, in the experiment with Neutrophil, the inhibition result is “inactive”. Further, the pIC50 (with MCF7; with HepG2; in experiment [2]; in the experiment with A549) was less than 5.00 throughout. The IC50 entry in experiment [1] was “Not Active”.

Take `C[C@@H]1CC[C@@]2(O)[C@@H](C[C@@H](O)C2(C)C)C(=O)[C@@]1(C)CCC1=CC(=O)OC1`: in the experiment on Neutrophil, the inhibition entry was “inactive”. Moreover, the pIC50 (in the experiment with MCF7; with HepG2; in experiment [2]; with A549) was less than 5.00 in each case. The IC50 result in experiment [1] was “Not Active”.

Turning to `C[C@@H]1CC[C@]2(O)[C@H](C[C@@H](O)C2(C)C)C(=O)[C@@]1(C)CCC1=CC(=O)OC1`, the pIC50 with MCF7 is less than 5.00; in experiment [1] (Homo sapiens, Neutrophil, read-out: IC50), 4.67; with HepG2, less than 5.00; in experiment [2], less than 5.00; in the experiment on A549 it was less than 5.00. Moreover, the inhibition at 28.6 µM in experiment [3] was found to be 35.9%.
